Measurements from patent US11000528B2, “Compound useful for the treatment of degenerative and inflammatory diseases” (Galapagos NV, priority 2009, dated 2021).
One block for each compound: values may come before it.

How the values were obtained:
[1] = Pharmacokinetic study in rodents (Sprague-Dawley rats); type: in vivo; conditions: male, plasma; Sprague-Dawley rat, IV 1 mg/kg
Procedure: Sprague-Dawley rats (male, 5-6 weeks old) were obtained from Janvier (France). Rats were acclimatized for at least 7 days before treatment and were kept on a 12 hr light/dark cycle (0700-1900). Temperature was maintained at approximately 22° C., and food and water were provided ad libitum. […] After the surgery, rats were housed individually. Rats were deprived of food for at least 16 hours before oral dosing and 6 hours after. Water was provided ad libitum.
Test compounds were orally dosed as a single esophageal gavage at 5 mg/kg under a dosing volume of 5 ml/kg and intravenously dosed as a bolus via the caudal vein at 1 mg/kg under a dosing volume of 5 mL/kg. Each group consisted of 3 rats. […] For compound 11, blood samples were collected at the retro-orbital sinus with lithium heparin as anti-coagulant at the following time points 0.25, 1, 3 and 6 hrs (oral route). Whole blood samples were centrifuged at 5000 rpm for 10 min and the resulting plasma samples were stored at −20° C. pending analysis.
Plasma concentrations of each test compound were determined by an LC-MS/MS method in which the mass spectrometer was operated in positive electrospray mode.
Pharmacokinetic parameters were calculated using Winnonlin® (Pharsight®, United States).

[2] = system: MMP13 levels in human chondrosarcoma cell line SW1353; assay: cells; conditions: SW1353, 48 h
Procedure: The cells were seeded in 96 well plates at 15,000 cells/well in a volume of 120 μL DMEM (Invitrogen) containing 10% (v/v) FBS and 1% penicillin/streptomycin (InVitrogen) incubated at 37° C. 5% CO2. Cells were preincubated with 15 μL of compound in M199 medium with 2% DMSO 1 hr before triggering with 15 μL OSM and IL-1β to reach 25 ng/mL OSM and 1 ng/mL IL-1β, and MMP13 levels were measured in conditioned medium 48 hours after triggering. MMP13 activity was measured using an antibody capture activity assay. For this purpose, 384 well plates (NUNC, 460518, MaxiSorb black) were coated with 35 μL of a 1.5 μg/mL anti-human MMP13 antibody (R&D Systems, MAB511) solution for 24 hrs at 4° C. After washing the wells 2 times with PBS+0.05% Tween, the remaining binding sites were blocked with 100 μL 5% non-fat dry milk (Santa Cruz, sc-2325, Blotto) in PBS for 24 hr at 4° C. […] After incubation for 24 hrs at 37° C. fluorescence of the converted substrate was measured in a Perkin Elmer Wallac EnVision 2102 Multilabel Reader (wavelength excitation: 320 nm, wavelength emission: 405 nm). Percentage inhibition=((fluorescence determined in the presence of vehicle−fluorescence determined for sample with test compound present) divided by (fluorescence determined in the presence of vehicle−fluorescence determined for sample without trigger))*100.

[3] = Microsomal stability, human liver microsomes; type: in vitro ADME; conditions: 3 μM compound
Procedure: (§1) A 10 mM stock solution of compound in DMSO was diluted 1000 fold in a 182 mM phosphate buffer pH7.4 in a 96 deep well plate (Greiner, Cat no. 780285) and pre-incubated at 37° C.
(§2) 40 μL of deionised water was added to a well of a polypropylene Matrix 2D barcode labelled storage tube (Thermo Scientific) and pre-incubated at 37° C.
(§3) A Glucose-6-phophate-dehydrogenase (G6PDH) working stock solution was prepared in 182 mM phosphate buffer pH7.4 and placed on ice before use. A co-factor containing MgCl2, glucose-6-phosphate and NADP+ was prepared in deionised water and placed on ice before use.
(§4) A final working solution containing liver microsomes (Xenotech) of a species of interest (human, mouse, rat, dog), previously described G6PDH and co-factors was prepared and this mix was incubated for no longer than 20 minutes at room temperature.
(§5) 30 μL of the pre-heated compound dilution was added to 40 μL of pre-heated water in the Matrix tubes and 30 μL of the microsomal mix was added. Final reaction concentrations were 3 μM compound, 1 mg microsomes, 0.4 U/mL GDPDH, 3.3 mM MgCl2, 3.3 mM glucose-6-phosphate and 1.3 mM NADP+.
(§6) To measure percentage remaining of compound at time zero MeOH or ACN was added (1:1) to the well before adding the microsomal mix. The plates were sealed with Matrix Sepra Seals™ (Matrix, Cat. No. 4464) and shaken for a few seconds ensure complete mixing of all components.
(§7) The samples which were not stopped are incubated at 37° C., 300 rpm and after 1 hr of incubation the reaction was stopped with MeOH or ACN (1:1).
(§8) After stopping the reaction the samples were mixed and placed on ice for 30 min to precipitate the proteins. The plates were then centrifuged 30 min at 1200 rcf at 4° C. and the supernatant was transferred to a 96 v-bottom PP plate (Greiner, 651201) for analysis on LCMS.
(§9) These plates were sealed with sealing mats (MA96RD-04S) of www.kinesis.co.uk and samples were measured at room temperature on LCMS (ZQ 1525 from Waters) under optimized conditions using Quanoptimize to determine the appropriate mass of the parent molecule.
(§10) The samples were analyzed on LCMS with a flow rate of 1 mL/min. Solvent A was 15 mM ammonia and solvent B was methanol or acetonitrile, depending on the stop solution used. The samples were run under positive ion spray on an XBridge C18 […] (2.1×30 mm) column, from Waters.
(§11) Peak area from the parent compound at time 0 was considered to be 100% remaining. The percentage remaining after 1 hr incubation was calculated from time 0 and was calculated as the percentage remaining. The solubility of the compound in the final test concentration in buffer is inspected by microscope and results are reported.
(§12) The data on microsomal stability are expressed as a percentage of the total amount of compound remaining after 60 min.

[4] = system: Circulating TNF alpha levels; assay: Septic shock model (LPS-induced TNF alpha release); type: in vivo, mouse; conditions: BALB/cJ mice, 30 mg/kg po, LPS 15 μg/kg ip
Procedure: Injection of lipopolysaccharide (LPS) induces a rapid release of soluble tumour necrosis factor (TNF-alpha) into the periphery. This model was used to analyse prospective blockers of TNF release in vivo. Six BALB/cJ female mice (20 g) per group were treated at the intended dosing once, po. Thirty minutes later, LPS (15 μg/kg; E. coli serotype 0111:B4) was injected ip. Ninety minutes later, mice were euthanized and blood was collected. Circulating TNF alpha levels were determined using commercially available ELISA kits. Dexamethasone ([…]) was used as a reference anti-inflammatory compound. Selected compounds were tested at one or multiple doses, e.g. 3 and/or 10 and/or 30 mg/kg, po.

rat CIA model = assay: Rat collagen induced arthritis (CIA) model; type: in vivo; parameters: key to Clinical Assessment End point score / Clinical Assessment AUC Score / Paw swelling / Larsen' Score: a “*” indicates that there was a statistically significant improvement in the score, p 0.05 vs. untreated control; conditions: for Clinical Assessment AUC Score / Clinical Assessment End point score: normalized score
Procedure: Dark Agouti rats (male, 7-8 weeks old) were obtained from Harlan Laboratories (Maison-Alfort, France). Rats were kept on a 12 hr light/dark cycle (0700-1900). Temperature was maintained at 22° C., and food and water were provided ad libitum.
One day before the experiment, CII solution (2 mg/mL) was prepared with 0.05 M acetic acid and stored at 4° C. Just before the immunization, equal volumes of adjuvant (IFA) and CII were mixed by a homogenizer in a pre-cooled glass bottle in an ice water bath. Extra adjuvant and prolonged homogenization may be required if an emulsion is not formed. 0.2 mL of the emulsion was injected intradermally at the base of the tail of each rat on day 1, a second booster intradermal injection (CII solution at 2 mg/mL in CFA 0.1 mL saline) was performed on day 9. This immunization method was modified from published methods (Sims et al, 2004; Jou et al., 2005).
The therapeutic effects of the compounds were tested in the rat CIA model. Rats were randomly divided into equal groups and each group contained 10 rats. All rats were immunized on day 1 and boosted on day 9. Therapeutic dosing lasted from day 16 to day 30. The negative control group was treated with vehicle (MC 0.5%) and the positive control group with Enbrcl (10 mg/kg, 3× week., s.c.). A compound of interest was typically tested at 3 doses, e.g. 3, 10, 30 mg/kg, p.o.
Arthritis is scored according to the method of Khachigian 2006, Lin et al 2007 and Nishida et al. 2004). The swelling of each of the four paws is ranked with the arthritic score as follows: 0-no symptoms; 1-mild, but definite redness and swelling of one type of joint such as the ankle or wrist, or apparent redness and swelling limited to individual digits, regardless of the number of affected digits; 2-moderate redness and swelling of two or more types of joints; 3-severe redness and swelling of the entire paw including digits; 4-maximally inflamed limb with involvement of multiple joints (maximum cumulative clinical arthritis score 16 per animal) (Nishida et al., 2004).
To permit the meta-analysis of multiple studies the clinical score values were normalised as follows:
AUC of clinical score (AUC score): The area under the curve (AUC) from day 1 to day 14 was calculated for each individual rat. The AUC of each animal was divided by the average AUC obtained for the vehicle in the study from which the data on that animal was obtained and multiplied by 100 (i.e. the AUC was expressed as a percentage of the average vehicle AUC per study).
Clinical score increase from day 1 to day 14 (End point score): The clinical score difference for each animal was divided by the average clinical score difference obtained for the vehicle in the study from which the data on that animal was obtained and multiplied by 100 (i.e. the difference was expressed as a percentage of the average clinical score difference for the vehicle per study).
X-ray photos were taken of the hind paws of each individual animal. A random blind identity number was assigned to each of the photos, and the severity of bone erosion was ranked by two independent scorers with the radiological Larsen's score system as follows: 0—normal with intact bony outlines and normal joint space; 1—slight abnormality with any one or two of the exterior metatarsal bones showing slight bone erosion; 2—definite early abnormality with any three to five of the exterior metatarsal bones showing bone erosion; 3—medium destructive abnormality with all the exterior metatarsal bones as well as any one or two of the interior metatarsal bones showing definite bone erosions; 4—severe destructive abnormality with all the metatarsal bones showing definite bone erosion and at least one of the inner metatarsal joints completely eroded leaving some bony joint outlines partly preserved; 5—mutilating abnormality without bony outlines. This scoring system is a modification from Salvemini et al., 2001; Bush et al., 2002; Sims et al., 2004; Jou et al., 2005.

[5] = Microsomal stability, rat liver microsomes; type: in vitro ADME; conditions: 3 μM compound
Procedure: as §1, §2, §3, §4, §5, §6, §7, §8, §9, §10, §11, §12

[6] = system: JAK-STAT signalling in HeLa cells; assay: JAK-STAT signalling assay (OSM-triggered pSTAT1(2)-luciferase reporter in HeLa cells); type: cell-based; conditions: Homo sapiens, human OSM 33 ng/mL, STAT1 luciferase reporter
Procedure: HeLa cells were maintained in Dulbecco's Modified Eagle's Medium (DMEM) containing 10% heat inactivated fetal calf serum, 100 U/mL penicillin and 100 μg/mL streptomycin. HeLa cells were used at 70% confluence for transfection. 20,000 cells in 87 μL cell culture medium were transiently transfected with 40 ng pSTAT1(2)-luciferase reporter (Panomics), 8 ng of LacZ reporter as internal control reporter and 52 ng of pBSK using 0.32 μL Jet-PEI (Polyplus) as transfection reagent per well in 96-well plate format. After overnight incubation at 37° C., 10% CO2, transfection medium was removed.
40 μL of cell lysate was used to read β-galactosidase activity by adding 180 μL β-Gal solution (30 μL ONPG 4 mg/mL+150 μL β-Galactosidase buffer (0.06 M Na2HPO4, 0.04 M NaH2PO4, 1 mM MgCl2)) for 20 min.
The positive and negative controls were used to calculate z′ and ‘percent inhibition’ (PIN) values.
PIN values were plotted for compounds tested in dose-response and EC50 values were derived.

C0 [1]: 1410 ng/mL
microsomal stability, percentage of compound remaining after 60 min, Human [3]: 87.2%
microsomal stability, percentage of compound remaining after 60 min, Rat [5]: 65.6%
Compound: O=C(Nc1nc2cccc(-c3ccc(CN4CCS(=O)(=O)CC4)cc3)n2n1)C1CC1 [Compound 1, Cyclopropanecarboxylic acid {5-[4-(1,1-dioxo-1-thiomorpholin-4-ylmethyl)-phenyl]-[1,2,4]triazolo[1,5-a]pyridin-2-yl}-amide]
EC50 [2]: 2.24 µM
activity in septic shock model (blocking of TNF release) [4]: active
Clinical Assessment AUC Score (rat CIA model; 0.1 mg/kg/day p.o.): *
Clinical Assessment End point score (rat CIA model; 0.1 mg/kg/day p.o.): *
Paw swelling (rat CIA model; 0.3 mg/kg/day p.o.): *
Clinical Assessment AUC Score (rat CIA model; 0.3 mg/kg/day p.o.): *
Clinical Assessment End point score (rat CIA model; 0.3 mg/kg/day p.o.): *
Paw swelling (rat CIA model; 1 mg/kg/day p.o.): *
Clinical Assessment AUC Score (rat CIA model; 1 mg/kg/day p.o.): *
Clinical Assessment End point score (rat CIA model; 1 mg/kg/day p.o.): *
Larsen' Score (rat CIA model; 3 mg/kg/day p.o.): *
Paw swelling (rat CIA model; 3 mg/kg/day p.o.): *
Clinical Assessment AUC Score (rat CIA model; 3 mg/kg/day p.o.): *
Clinical Assessment End point score (rat CIA model; 3 mg/kg/day p.o.): *
normalized clinical score values (calculated as AUC or as the difference from day 1 to day 14) (rat CIA model; dose of 0.1 mg/kg): statistically significant improvements
paw swelling readout (rat CIA model; dose of 0.3 mg/kg): statistically significant increase
Larsen score (rat CIA model; dose of 3 mg/kg): statistically significant increase
improvement in efficacy over Compound 2 when the oral doses are compared (rat CIA model; oral doses compared): 100 fold

microsomal stability, percentage of compound remaining after 60 min, Human [3]: 102%
microsomal stability, percentage of compound remaining after 60 min, Rat [5]: 89%
Compound: O=C(Nc1nc2cccc(-c3ccc(C(=O)N4CCS(=O)(=O)CC4)cc3)n2n1)C1CC1 [Compound 10, Cyclopropanecarboxylic acid {5-[4-(1,1-dioxo-1-thiomorpholine-4-carbonyl)-phenyl]-[1,2,4]triazolo[1,5-a]yridin-2-yl}-amide]

C0 [1]: 863 ng/mL
microsomal stability, percentage of compound remaining after 60 min, Human [3]: 73%
microsomal stability, percentage of compound remaining after 60 min, Rat [5]: 38%
Compound: O=C(Nc1nc2cccc(-c3ccc(CN4CCOCC4)cc3)n2n1)C1CC1 [Compound 2, N-(5-(4-(morpholinomethyl)phenyl)-[1,2,4]triazolo[1,5-a]pyridin-2-yl)cyclopropanecarboxamide]
normalized clinical score values (on day 14) (rat CIA model; dose of 10 mg/kg): statistically significant improvements
Larsen score (rat CIA model; dose of 30 mg/kg): statistically significant increase
paw swelling readout (rat CIA model; dose of 30 mg/kg): statistically significant increase

EC50 [6]: 0.74 µM
microsomal stability, percentage of compound remaining after 60 min, Human [3]: 51%
microsomal stability, percentage of compound remaining after 60 min, Rat [5]: 26%
Compound: O=C(Nc1nc2cccc(-c3ccc(CN4CCC(F)(F)CC4)cc3)n2n1)C1CC1 [Compound 11, Cyclopropanecarboxylic acid {5-[4-(4,4-difluoro-piperidin-1-ylmethyl)-phenyl]-[1,2,4]triazolo[1,5-a]pyridin-2-yl}-amide]
